Where “and” joins values, the source holds several entries; their conditions need not be identical. Identical values can stand only once. Inconclusive results and toxic doses are left out.
Tested on: B16 melanoma ip, C57BL/6 mice, median survival T/C
Assay: NCI In Vivo Anticancer Drug Screen. Data for tumor model B16 Melanoma (intraperitoneal) in C57BL/6 mice
Conditions: endpoint: median survival time, higher = longer survival
Description: The antitumor activity of compounds was measured in mice bearing transplantable tumors. Survival or tumor size were measured and the results are expressed as the measurement made in the treated group (T) divided by the measurement made in the vehicle treated control group (C). The tumor model used in this assay is B16 Melanoma (intraperitoneal) in C57BL/6 mice

[1] = dose: 8.0 mg/kg/injection, schedule: Q01DX009 (ip), vehicle: saline
[2] = dose: 16.0 mg/kg/injection, schedule: Q01DX009 (ip), vehicle: saline
[3] = dose: 12.5 mg/kg/injection, schedule: Q01DX009 (ip), vehicle: saline
[4] = dose: 25.0 mg/kg/injection, schedule: Q01DX009 (ip), vehicle: saline
[5] = dose: 50.0 mg/kg/injection, schedule: Q01DX009 (ip), vehicle: saline
[6] = dose: 100.0 mg/kg/injection, schedule: Q01DX009 (ip), vehicle: saline
[7] = dose: 30.0 mg/kg/injection, schedule: Q01DX009 (ip), vehicle: saline
[8] = dose: 6.25 mg/kg/injection, schedule: Q01DX009 (ip), vehicle: saline
[9] = dose: 25.0 mg/kg/injection, schedule: Q01DX009 (ip), vehicle: saline with Tween-80
[10] = dose: 50.0 mg/kg/injection, schedule: Q01DX009 (ip), vehicle: saline with Tween-80
[11] = dose: 3.13 mg/kg/injection, schedule: Q01DX009 (ip), vehicle: saline
[12] = dose: 200.0 mg/kg/injection, schedule: Q01DX009 (ip), vehicle: saline
[13] = dose: 5.0 mg/kg/injection, schedule: Q01DX009 (ip), vehicle: saline
[14] = dose: 10.0 mg/kg/injection, schedule: Q01DX009 (ip), vehicle: saline
[15] = dose: 100.0 mg/kg/injection, schedule: Q01DX009 (ip), vehicle: saline with Tween-80
[16] = dose: 200.0 mg/kg/injection, schedule: Q01DX009 (ip), vehicle: saline with Tween-80

## COc1cc([C@@H]2c3cc4c(cc3[C@H](O)[C@H]3COC(=O)[C@H]23)OCO4)cc(OC)c1OC
dose: 2.0 mg/kg/injection, schedule: Q01DX009 (ip), vehicle: saline
  T/C: 106 % of control
dose: 4.0 mg/kg/injection, schedule: Q01DX009 (ip), vehicle: saline
  T/C: 120 % of control
[1]
  T/C: 113 % of control
[2]
  T/C: 96 % of control

## CC(=O)[C@@]1(O)CC[C@H]2[C@@H]3C[C@H](C)C4=CC(=O)C=C[C@]4(C)[C@@]3(F)[C@@H](O)C[C@@]21C
[3]
  T/C: 105 % of control
dose: 12.5 mg/kg/injection, schedule: Q01DX009 (sc), vehicle: steriod suspending solution
  T/C: 106 % of control
[4]
  T/C: 105 % of control
dose: 25.0 mg/kg/injection, schedule: Q01DX009 (sc), vehicle: steriod suspending solution
  T/C: 103 % of control
[5]
  T/C: 100 % of control
[6]
  T/C: 100 % of control

## O=C1CN(CCN2CC(=O)NC(=O)C2)CC(=O)N1
[7]
  T/C: 150 % of control

## CS(=O)(=O)OCCCCOS(C)(=O)=O
dose: 3.12 mg/kg/injection, schedule: Q01DX009 (ip), vehicle: saline
  T/C: 103 % of control
[8]
  T/C: 96 % of control
[3]
  T/C: 106 % of control
[4]
  T/C: 103 % of control

## O=P1(N(CCCl)CCCl)NCCCO1 (configuration not stated)
[4]
  T/C: 93 % of control
[6]
  T/C: 90 % of control

## CO[C@H](C(=O)[C@@H](O)[C@@H](C)O)[C@@H]1Cc2cc3cc(OC4CC(OC5CC(O)C(O)C(C)O5)C(O)C(C)O4)c(C)c(O)c3c(O)c2C(=O)[C@H]1OC1CC(OC2CC(OC3CC(C)(O)C(O)C(C)O3)C(O)C(C)O2)C(O)C(C)O1 (some centres not stated)
dose: 0.25 mg/kg/injection, schedule: Q01DX009 (ip), vehicle: saline
  T/C: 106 % of control
dose: 0.5 mg/kg/injection, schedule: Q01DX009 (ip), vehicle: saline
  T/C: 100 % of control
dose: 1.0 mg/kg/injection, schedule: Q01DX009 (ip), vehicle: saline
  T/C: 113 % of control

## CC[C@H]1CN2CCc3cc(OC)c(OC)cc3[C@@H]2C[C@@H]1C[C@H]1NCCc2cc(OC)c(OC)cc21
dose: 1.0 mg/kg/injection, schedule: Q03DX005 (ip), vehicle: saline
  T/C: 106 % of control
dose: 2.0 mg/kg/injection, schedule: Q03DX005 (ip), vehicle: saline
  T/C: 109 % of control
dose: 16.0 mg/kg/injection, schedule: Q03DX005 (ip), vehicle: saline
  T/C: 87 % of control

## O=CC(S)CO (configuration not stated)
[4]
  T/C: 120 % of control
[5]
  T/C: 120 % of control

## N#CSCc1ccc(Cl)cc1Cl
[9]
  T/C: 102 % of control
[10]
  T/C: 100 % of control

## S=c1nc[nH]c2nc[nH]c12
dose: 7.5 mg/kg/injection, schedule: Q01DX009 (ip), vehicle: saline
  T/C: 93 % of control and 100 % of control
dose: 15.0 mg/kg/injection, schedule: Q01DX009 (ip), vehicle: saline
  T/C: 90 % of control and 93 % of control
[7]
  T/C: 93 % of control
dose: 60.0 mg/kg/injection, schedule: Q01DX009 (ip), vehicle: saline
  T/C: 93 % of control

## N=[N+]=CC(=O)OCC(N)C(=O)O (configuration not stated)
[11]
  T/C: 96 % of control
[8]
  T/C: 100 % of control
[3]
  T/C: 86 % of control
[4]
  T/C: 90 % of control

## CC(Cc1ccc(O)c(O)c1)C(C)Cc1ccc(O)c(O)c1 (configuration not stated)
[5]
  T/C: 103 % of control
[6]
  T/C: 106 % of control
[12]
  T/C: 113 % of control
dose: 400.0 mg/kg/injection, schedule: Q01DX009 (ip), vehicle: saline
  T/C: 113 % of control

## O=C(Nc1ccc(C2=NCCN2)cc1)c1ccc(C(=O)Nc2ccc(C3=NCCN3)cc2)cc1
[1]
  T/C: 100 % of control
[2]
  T/C: 92 % of control and 109 % of control
dose: 32.0 mg/kg/injection, schedule: Q01DX009 (ip), vehicle: saline
  T/C: 92 % of control and 106 % of control
dose: 64.0 mg/kg/injection, schedule: Q01DX009 (ip), vehicle: saline
  T/C: 96 % of control and 106 % of control

## CC1OC(O[C@@H]2C=C3CC[C@@H]4[C@H](CC[C@]5(C)[C@@H](c6ccc(=O)oc6)CC[C@]45O)[C@@]3(C)CC2)C(O)C(O)C1O (some centres not stated)
dose: 2.5 mg/kg/injection, schedule: Q01DX009 (sc), vehicle: steriod suspending solution
  T/C: 113 % of control
dose: 5.0 mg/kg/injection, schedule: Q01DX009 (sc), vehicle: steriod suspending solution
  T/C: 97 % of control

## N[C@@H](Cc1ccc(N(CCCl)CCCl)cc1)C(=O)O
dose: 1.5 mg/kg/injection, schedule: Q01DX009 (ip), vehicle: saline
  T/C: 170 % of control and 228 % of control
dose: 3.0 mg/kg/injection, schedule: Q01DX009 (ip), vehicle: saline
  T/C: 210 % of control
dose: 6.0 mg/kg/injection, schedule: Q01DX009 (ip), vehicle: saline
  T/C: 226 % of control
dose: 12.0 mg/kg/injection, schedule: Q01DX009 (ip), vehicle: saline
  T/C: 93 % of control

## CC1([N+](=O)[O-])COP(=O)(NC2CCCC2)OC1 (configuration not stated)
[5]
  T/C: 100 % of control
[6]
  T/C: 96 % of control
[12]
  T/C: 96 % of control

## CC1CCC(NC(=O)N(CCCl)N=O)CC1 (configuration not stated)
dose: 1.9 mg/kg/injection, schedule: Q01DX001 (ip), vehicle: saline
  T/C: 100 % of control
dose: 3.75 mg/kg/injection, schedule: Q01DX001 (ip), vehicle: saline
  T/C: 112 % of control
dose: 7.5 mg/kg/injection, schedule: Q01DX001 (ip), vehicle: saline
  T/C: 103 % of control
dose: 15.0 mg/kg/injection, schedule: Q01DX001 (ip), vehicle: saline
  T/C: 115 % of control

## Nc1nc2ncc(CNc3ccc(C(=O)NC(CCC(=O)O)C(=O)O)cc3)nc2c(=O)[nH]1 (configuration not stated)
[3]
  T/C: 100 % of control and 103 % of control
[4]
  T/C: 97 % of control and 106 % of control

## O=c1[nH]cc(F)c(=O)[nH]1
[13]
  T/C: 113 % of control
[14]
  T/C: 120 % of control
dose: 20.0 mg/kg/injection, schedule: Q01DX009 (ip), vehicle: saline
  T/C: 123 % of control

## O=C(O)CCCCSc1ncnc2nc[nH]c12
[15]
  T/C: 110 % of control
[16]
  T/C: 103 % of control
dose: 400.0 mg/kg/injection, schedule: Q01DX009 (ip), vehicle: saline with Tween-80
  T/C: 114 % of control

## Nc1ccc(Cl)cc1N
dose: 12.5 mg/kg/injection, schedule: Q01DX009 (ip), vehicle: other
  T/C: 106 % of control
dose: 25.0 mg/kg/injection, schedule: Q01DX009 (ip), vehicle: other
  T/C: 100 % of control
dose: 50.0 mg/kg/injection, schedule: Q01DX009 (ip), vehicle: other
  T/C: 100 % of control
dose: 100.0 mg/kg/injection, schedule: Q01DX009 (ip), vehicle: other
  T/C: 90 % of control

## O=C(O)c1[nH]c(=O)[nH]c(=O)c1F
dose: 1.25 mg/kg/injection, schedule: Q01DX009 (ip), vehicle: saline
  T/C: 100 % of control
dose: 2.5 mg/kg/injection, schedule: Q01DX009 (ip), vehicle: saline
  T/C: 106 % of control and 110 % of control
[13]
  T/C: 100 % of control and 103 % of control
[14]
  T/C: 87 % of control and 89 % of control

## O=C1CN=C(c2ccc[nH]2)c2cc(Cl)ccc2N1
[3]
  T/C: 107 % of control
[9]
  T/C: 107 % of control
[4]
  T/C: 105 % of control
dose: 50.0 mg/kg/injection, schedule: Q01DX001 (ip), vehicle: saline
  T/C: 100 % of control
[10]
  T/C: 100 % of control
[5]
  T/C: 97 % of control
dose: 100.0 mg/kg/injection, schedule: Q01DX001 (ip), vehicle: saline
  T/C: 100 % of control
[15]
  T/C: 103 % of control
[6]
  T/C: 97 % of control
dose: 200.0 mg/kg/injection, schedule: Q01DX001 (ip), vehicle: saline
  T/C: 97 % of control
[16]
  T/C: 107 % of control
[12]
  T/C: 112 % of control
dose: 400.0 mg/kg/injection, schedule: Q01DX001 (ip), vehicle: saline
  T/C: 102 % of control

## COc1cc(NS(C)(=O)=O)ccc1Nc1c2ccccc2nc2ccccc12
dose: 0.5 mg/kg/injection, schedule: Q01DX009 (ip), vehicle: water
  T/C: 160 % of control
dose: 1.0 mg/kg/injection, schedule: Q01DX009 (ip), vehicle: Klucel (hydroxypropylcellulose) (HPC)
  T/C: 172 % of control
dose: 2.0 mg/kg/injection, schedule: Q01DX009 (ip), vehicle: Klucel (hydroxypropylcellulose) (HPC)
  T/C: 179 % of control
dose: 2.0 mg/kg/injection, schedule: Q01DX009 (ip), vehicle: water
  T/C: 222 % of control
dose: 4.0 mg/kg/injection, schedule: Q01DX009 (ip), vehicle: water
  T/C: 246 % of control

## C[C@]12C=CC(=O)C=C1CC[C@@H]1[C@@H]2C(=O)C[C@@]2(C)[C@H]1CC[C@]2(O)C(=O)CO
[3]
  T/C: 100 % of control
[4]
  T/C: 100 % of control
[6]
  T/C: 88 % of control

## Cn1cc(NC(=O)c2cc(NC(=O)CN=C(N)N)cn2C)cc1C(=O)NCCC(=N)N
[11]
  T/C: 100 % of control and 107 % of control
[8]
  T/C: 100 % of control and 107 % of control
[3]
  T/C: 100 % of control
[4]
  T/C: 86 % of control

From PubChem BioAssay AID198 (DTP/NCI, 2004)
